In PubChem BioAssay (NCI):
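Dose response: 5 concentrations. Exposure: 48 h. Format: 96-well plates. Endpoint: linear interpolation; highest concentration if not reached. GI50: concentration for 50% inhibition of growth. The concentration for full growth arrest is given as TGI.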

Columns and labels:
Assay in all cases: NCI tumour cell line growth inhibition, 48 h
[1] = system: NCI-H460 lung
[2] = system: A549 NSCLC
[3] = system: COLO 205 colon
[4] = system: OVCAR-5 ovarian
[5] = system: OVCAR-3 ovarian
[6] = system: UACC-257 melanoma
[7] = system: NCI-H23 lung
[8] = system: SK-MEL-28 melanoma
[9] = system: SNB-75 CNS
[10] = system: LOX IMVI melanoma

SMILES | TGI [1] [µM] | TGI [2] [µM] | TGI [3] [µM] | TGI [4] [µM] | TGI [5] [µM] | TGI [6] [µM] | TGI [7] [µM] | TGI [8] [µM] | TGI [9] [µM] | TGI [10] [µM] | GI50 [1] [µM] | GI50 [2] [µM] | GI50 [3] [µM] | GI50 [4] [µM] | GI50 [5] [µM] | GI50 [6] [µM] | GI50 [7] [µM] | GI50 [8] [µM] | GI50 [9] [µM] | GI50 [10] [µM]
NC1=C(Br)C(=O)c2ncccc2C1=O | 1.16 | 2.68 | 3.18 | 3.49 | 2.33 | 1.89 | 0.668 | 1.25 | 0.664 | 0.655 |  |  |  |  |  |  |  |  |  | 
C[C@]12CC[C@@H]3c4ccc(O)cc4CC[C@H]3[C@@H]1CC[C@@H]2NS(=O)(=O)c1cccc(C(F)(F)F)c1 | 6.79 | 12.8 | 4.13 | 17.4 | 8.6 | 15.7 | 15.8 | 19.1 | 15.5 |  | 2.6 | 3.23 | 2.12 | 4.54 | 2.95 | 3.54 | 3.76 | 5.87 | 2.98 | 
O=C(CCCCCCSc1nc(-c2ccccc2)cc(-c2ccccc2)n1)NO | 11.7 | 10.4 | 10.7 | 7.92 | 9.26 | 11.1 | 5.55 | 12.4 | 14 | 3.84 | 1.4 | 2.45 | 2.67 | 1.84 | 2.15 | 2.23 | 1.97 | 2.85 | 1.7 | 1.86
C/C(=C\c1ccn(-c2ccc(N)c(F)c2)n1)[C@@H]1C[C@@H]2O[C@]2(C)CCC[C@H](C)[C@H](O)[C@@H](C)C(=O)C(C)(C)[C@@H](O)CC(=O)O1 | > 50 | > 50 | 0.128 | > 50 | 0.0747 | > 50 | > 50 | > 50 | 0.0725 | > 50 | 0.00938 | 0.0118 | 0.00845 | 0.0472 | 0.00815 | 0.0458 | 0.0138 | 7.03 | < 0.005 | 0.0121
N=c1c2c(-c3ccccc3)c(-c3ccccc3)n(Cc3ccccc3)c2ncn1CCCO | 4.47 | 15.5 | 2.02 | 23.4 | 8.08 | 5.17 | 24.3 | 3.4 | 8.43 | 2.77 | 0.448 | 0.561 | 0.681 | 7.27 | 1.38 | 1.75 | 4.32 | 1.44 | 1.38 | 0.5
NC(=O)c1oc([N+](=O)[O-])c(-c2ccccc2)c1-c1ccccc1 | > 100 | 44.5 | 42.1 | 63.2 | 22.7 | 34.7 | 35 | > 100 | > 100 | 29.1 |  |  |  |  |  |  |  |  |  | 
COc1ccc(-c2cc(-c3ccccc3)nc(N3CCN(CCNc4ccnc5cc(Cl)ccc45)CC3)n2)cc1 | 3.78 | 4.39 | 2.66 | 4.99 | 3.69 |  | 5.23 | 2.94 | 28.8 | 3.24 | 1.92 | 1.9 | 1.17 | 1.92 | 1.89 |  | 1.9 | 1.52 | 14.9 | 1.76
CN(CC(=O)O)c1ccc(/C=C/c2ccnc3ccccc23)cc1 | 67.1 | 61.4 | 34.3 | 94 | > 100 | 65.4 | > 100 | > 100 | 86.8 | 45.7 |  |  |  |  |  |  |  |  |  | 
O=c1c2cc(Br)ccc2nc(-c2ccccc2Cl)n1NCC1(O)OCC(O)C(O)C1O (stereo not drawn) | > 100 | > 100 | > 100 | > 100 | > 100 | > 100 | > 100 | > 100 | > 100 | > 100 |  |  |  |  |  |  |  |  |  | 
CN(C)CCNC(=O)c1ccc(C(=O)NCCN(C)C)c2nc3ccccc3cc12 | 2.79 | 13 | 2.39 | 3.78 | 9.91 | 4.47 | 3.8 | 3.89 | 3.46 | 3.15 |  |  |  |  |  |  |  |  |  | 
O=C(O)C12C3C4C1C1C2C3C1(Br)C41OCCO1 (stereo not drawn) | > 100 | > 100 | > 100 | > 100 | > 100 | > 100 | > 100 | > 100 | > 100 | > 100 |  |  |  |  |  |  |  |  |  | 
COc1ccc(C2=NN(C(=O)COc3ccc(Cl)cc3)C(O)(c3ccc(Cl)cc3)C2)cc1 (stereo not drawn) | > 100 | > 100 | > 100 | > 100 | > 100 | > 100 | > 100 | > 100 | > 100 | > 100 |  |  |  |  |  |  |  |  |  | 
N#Cc1cccc(C(=O)Nc2cccc(NC(=O)c3cccc(C#N)c3)c2)c1 | > 100 | > 100 | > 100 | > 100 |  | > 100 | > 100 | > 100 | > 100 |  | 42.8 | 74.3 | > 100 | > 100 |  | > 100 | 89 | > 100 | > 100 | 
CCCCCCC#Cc1ccccc1C#CCO | > 100 | 49 | 34 | > 100 | 27.6 | 62.7 | 9.74 | 45.3 |  | 49.3 | 32.8 | 20.7 | 17.2 | 38.7 | 14.5 | 26.5 | 3.69 | 18 |  | 20.3
O/N=C/c1cc2c(cc1Br)OCO2 | > 100 | > 100 | > 100 | > 100 | > 100 | > 100 | > 100 |  | > 100 | > 100 |  |  |  |  |  |  |  |  |  | 
CS(=O)(=O)OCCn1cnc2nc(NC(=O)c3ccccc3)[nH]c(=O)c21 | > 100 | > 100 | > 100 | > 100 | > 100 | > 100 |  | > 100 | > 100 | > 100 |  |  |  |  |  |  |  |  |  | 
